From patent US9505745B2, “Enhancer of zeste homolog 2 inhibitors” (GlaxoSmithKline Intellectual Property (No.2) Limited, priority 2013, dated 2016)
Counter-ions that a name gives are not always drawn.

Target: EZH2 within the PRC2 complex (Homo sapiens (Human), UniProt Q15910)
Assay: EZH2 methyltransferase SPA, biotinylated histone H3K27 peptide substrate (Assay Protocol 2)
Assay type: biochemical
Settings: 3H-SAM, ≦10 nM approaches limit of detection
Description: Compounds contained herein were evaluated for their ability to inhibit the methyltransferase activity of EZH2 within the PRC2 complex. Human PRC2 complex was prepared by co-expressing each of the 5 member proteins (FLAG-EZH2, EED, SUZ12, RbAp48, AEBP2) in Sf9 cells followed by co-purification. Enzyme activity was measured in a scintillation proximity assay (SPA) where a tritiated methyl group is transferred from 3H-SAM to a lysine residue on a biotinylated, unmethylated peptide substrate derived from histone H3. The peptides were captured on streptavidin-coated SPA beads and the resulting signal was read on a ViewLux plate reader.
Part A. Compound Preparation
• 4. Prepare 10 mM stock of compounds from solid in 100% DMSO. • 5. Set up an 11-point serial dilution (1:4 dilution, top concentration 10 mM) in 100% DMSO for each test compound in a 384 well plate leaving columns 6 and 18 for DMSO controls. • 6. Dispense 10 nL of compound from the dilution plate into reaction plates (Corning, 384-well polystyrene NBS, Cat#3673). Part B. Reagent Preparation Prepare the following solutions: • 7. 1× Base Buffer, 50 mM Tris-HCl, pH 8, 2 mM MgCl2: Per 1 L of base buffer, combine 1 M Tris-HCl, pH 8 (50 mL), 1 M MgCl2 (2 mL), and distilled water (948 mL). • 8. 1× Assay Buffer: Per 10 mL of 1× Assay Buffer, combine 1× Base Buffer (9.96 mL), 1 M DTT (40 uL), and 10% Tween-20 (1 uL) to provide a final concentration of 50 mM Tris-HCl, pH 8, 2 mM MgCl2, 4 mM DTT, 0.001% Tween-20. • 9. 2× Enzyme Solution: Per 10 mL of 2× Enzyme Solution, combine 1× Assay Buffer (9.99 mL) and 3.24 uM EZH2 5 member complex (6.17 uL) to provide a final enzyme concentration of 1 nM. • 10. SPA Bead Solution: Per 1 mL of SPA Bead Solution, combine Streptavidin coated SPA beads (PerkinElmer, Cat#RPNQ0261, 40 mg) and 1× Assay Buffer (1 mL) to provide a working concentration of 40 mg/mL. • 11. 2× Substrate Solution: Per 10 mL of 2× Substrate Solution, combine 40 mg/mL SPA Bead Solution (375 uL), 1 mM biotinylated histone H3K27 peptide (200 uL), 12.5 uM 3H-SAM (240 uL; 1 mCi/mL), 1 mM cold SAM (57 uL), and 1× Assay Buffer (9.13 mL) to provide a final concentration of 0.75 mg/mL SPA Bead Solution, 10 uM biotinylated histone H3K27 peptide, 0.15 uM 3H-SAM (˜12 uCi/mL 3H-SAM), and 2.85 uM cold SAM. • 12. 2.67× Quench Solution: Per 10 mL of 2.67× Quench Solution, combine 1× Assay Buffer (9.73 mL) and 10 mM cold SAM (267 uL) to provide a final concentration of 100 uM cold SAM. Part C. Assay Reaction in 384-well Grenier Bio-One Plates Compound Addition • 3. Stamp 10 nL/well of 1000× Compound to test wells (as noted above). • 4. Stamp 10 nL/well of 100% DMSO to columns 6 & 18 (high and low controls, respectively). Assay • 10. Dispense 5 uL/well of 1× Assay Buffer to column 18 (low control reactions). • 11. Dispense 5 uL/well of 2× Substrate Solution to columns 1-24 (note: substrate solution should be mixed to ensure homogeneous bead suspension before dispensing into matrix reservoir). • 12. Dispense 5 uL/well of 2× Enzyme Solution to columns 1-17, 19-24. • 13. Incubate the reaction for 60 min at room temperature. Quench • 5. Dispense 6 uL/well of the 2.67× Quench Solution to columns 1-24. • 6. Seal assay plates and spin for ˜1 min at 500 rpm. • 7. Dark adapt plates in the ViewLux instrument for 15-60 min. Read plates • 2. Read the assay plates on the Viewlux Plate Reader utilizing the 613 nm emission filter or clear filter (300 s exposure). Reagent addition can be done manually or with automated liquid handler. Results
Percent inhibition was calculated relative to the DMSO control for each compound concentration and the resulting values were fit using standard IC50 fitting parameters within the ABASE data fitting software package.

Chain of EZH2 within the PRC2 complex (Q15910 whole entry): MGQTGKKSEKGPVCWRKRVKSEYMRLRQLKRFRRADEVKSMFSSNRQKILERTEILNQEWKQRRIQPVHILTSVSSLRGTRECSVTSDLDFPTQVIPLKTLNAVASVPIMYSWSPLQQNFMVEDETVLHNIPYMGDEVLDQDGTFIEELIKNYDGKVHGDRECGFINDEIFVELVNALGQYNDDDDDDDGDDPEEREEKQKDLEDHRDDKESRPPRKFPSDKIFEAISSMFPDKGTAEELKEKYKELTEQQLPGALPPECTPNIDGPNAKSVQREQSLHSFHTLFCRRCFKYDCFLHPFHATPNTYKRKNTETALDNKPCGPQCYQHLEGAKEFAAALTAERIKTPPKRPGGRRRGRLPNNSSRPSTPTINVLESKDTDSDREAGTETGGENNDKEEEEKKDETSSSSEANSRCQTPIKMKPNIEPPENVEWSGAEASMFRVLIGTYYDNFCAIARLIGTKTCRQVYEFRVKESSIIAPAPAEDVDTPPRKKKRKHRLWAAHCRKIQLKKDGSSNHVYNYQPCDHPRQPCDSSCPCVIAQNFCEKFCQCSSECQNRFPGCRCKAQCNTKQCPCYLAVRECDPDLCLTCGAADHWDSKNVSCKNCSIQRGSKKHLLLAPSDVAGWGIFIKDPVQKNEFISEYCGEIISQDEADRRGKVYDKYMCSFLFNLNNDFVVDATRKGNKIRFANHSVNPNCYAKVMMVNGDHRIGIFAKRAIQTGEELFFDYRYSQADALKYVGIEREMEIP
Chain of EZH2 within the PRC2 complex (O75530 whole entry partner): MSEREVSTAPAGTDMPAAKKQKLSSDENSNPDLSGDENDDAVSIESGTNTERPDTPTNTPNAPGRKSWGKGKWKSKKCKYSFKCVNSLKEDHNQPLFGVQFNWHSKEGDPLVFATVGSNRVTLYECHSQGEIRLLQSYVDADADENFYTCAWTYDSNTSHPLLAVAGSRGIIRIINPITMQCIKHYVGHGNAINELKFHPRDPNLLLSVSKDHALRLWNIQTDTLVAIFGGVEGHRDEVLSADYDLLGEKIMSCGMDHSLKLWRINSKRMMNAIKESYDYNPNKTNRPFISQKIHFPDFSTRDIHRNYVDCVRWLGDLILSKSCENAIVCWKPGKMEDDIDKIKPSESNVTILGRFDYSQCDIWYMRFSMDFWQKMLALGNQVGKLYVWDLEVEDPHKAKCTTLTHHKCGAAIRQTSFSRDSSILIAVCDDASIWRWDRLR
Chain of EZH2 within the PRC2 complex (Q15022 whole entry partner): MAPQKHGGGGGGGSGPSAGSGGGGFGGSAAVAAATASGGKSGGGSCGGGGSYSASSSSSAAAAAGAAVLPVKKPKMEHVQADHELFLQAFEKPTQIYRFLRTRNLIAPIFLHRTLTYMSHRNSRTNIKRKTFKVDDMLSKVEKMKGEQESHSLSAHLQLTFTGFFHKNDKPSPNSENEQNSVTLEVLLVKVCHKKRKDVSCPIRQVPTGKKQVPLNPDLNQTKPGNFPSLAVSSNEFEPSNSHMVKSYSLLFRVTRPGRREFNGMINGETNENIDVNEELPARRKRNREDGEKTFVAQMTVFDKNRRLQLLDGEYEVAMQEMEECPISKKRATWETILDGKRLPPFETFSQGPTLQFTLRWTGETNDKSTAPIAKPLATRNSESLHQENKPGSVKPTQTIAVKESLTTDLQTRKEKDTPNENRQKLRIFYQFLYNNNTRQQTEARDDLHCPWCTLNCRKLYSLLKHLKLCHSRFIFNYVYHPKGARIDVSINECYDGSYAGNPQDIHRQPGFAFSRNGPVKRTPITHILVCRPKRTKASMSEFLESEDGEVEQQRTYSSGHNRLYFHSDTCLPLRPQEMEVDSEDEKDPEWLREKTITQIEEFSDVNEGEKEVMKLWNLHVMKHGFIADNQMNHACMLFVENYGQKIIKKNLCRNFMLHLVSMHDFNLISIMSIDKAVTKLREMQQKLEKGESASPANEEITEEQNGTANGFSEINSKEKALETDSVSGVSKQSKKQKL
Chain of EZH2 within the PRC2 complex (Q09028 whole entry partner): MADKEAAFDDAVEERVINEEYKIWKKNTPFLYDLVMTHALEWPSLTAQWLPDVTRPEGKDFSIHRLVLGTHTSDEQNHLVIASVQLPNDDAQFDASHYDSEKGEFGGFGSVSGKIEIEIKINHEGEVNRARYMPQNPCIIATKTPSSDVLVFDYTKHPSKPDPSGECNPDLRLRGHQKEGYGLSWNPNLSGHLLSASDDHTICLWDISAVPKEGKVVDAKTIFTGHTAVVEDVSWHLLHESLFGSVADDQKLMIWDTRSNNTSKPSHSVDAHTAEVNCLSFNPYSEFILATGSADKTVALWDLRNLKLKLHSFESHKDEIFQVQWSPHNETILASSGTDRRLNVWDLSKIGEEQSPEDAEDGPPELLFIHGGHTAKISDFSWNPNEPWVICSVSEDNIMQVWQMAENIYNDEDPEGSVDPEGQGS
Chain of EZH2 within the PRC2 complex (Q6ZN18 whole entry partner): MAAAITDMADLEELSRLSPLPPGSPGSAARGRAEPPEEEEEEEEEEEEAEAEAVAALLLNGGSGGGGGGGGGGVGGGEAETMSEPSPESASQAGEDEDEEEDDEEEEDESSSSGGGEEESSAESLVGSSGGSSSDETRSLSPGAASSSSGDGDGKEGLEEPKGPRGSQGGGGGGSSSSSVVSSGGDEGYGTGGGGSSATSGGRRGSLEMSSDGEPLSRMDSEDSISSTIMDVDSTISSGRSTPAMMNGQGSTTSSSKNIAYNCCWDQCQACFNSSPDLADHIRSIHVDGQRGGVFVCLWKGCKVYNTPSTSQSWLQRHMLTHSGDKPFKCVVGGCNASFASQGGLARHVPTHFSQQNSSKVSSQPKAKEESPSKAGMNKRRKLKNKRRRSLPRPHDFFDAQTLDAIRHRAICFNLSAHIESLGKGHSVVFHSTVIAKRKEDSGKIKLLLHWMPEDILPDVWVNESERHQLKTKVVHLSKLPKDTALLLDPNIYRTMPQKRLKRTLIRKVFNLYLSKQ

Compound | IC50
C/C=C(/c1scc(C(=O)NCc2c(C)cc(C)[nH]c2=O)c1C)[C@H]1CC[C@H](N)CC1 [Example 35, 5-((E)-1-((trans)-4-Aminocyclohexyl)prop-1-en-1-yl)-N-((4,6-dimethyl-2-oxo-1,2-dihydropyridin-3-yl)methyl)-4-methylthiophene-3-carboxamide] | 13 nM
CCN(c1sc(C2CCN(S(C)(=O)=O)C2)c(C(=O)NCc2c(C)cc(C)[nH]c2=O)c1C)C1CCOCC1 (centres unmarked) [Example 62, N-((4,6-Dimethyl-2-oxo-1,2-dihydropyridin-3-yl)methyl)-5-(ethyl(tetrahydro-2H-pyran-4-yl)amino)-4-methyl-2-(1-(methylsulfonyl)pyrrolidin-3-yl)thiophene-3-carboxamide] | 501 nM
CCN(c1sc(C2CCN(C(=O)OC(C)(C)C)CC2)c(C(=O)NCc2c(C)cc(C)[nH]c2=O)c1C)C1CCOCC1 [Example 59, tert-Butyl 4-(3-(((4,6-dimethyl-2-oxo-1,2-dihydropyridin-3-yl)methyl)carbamoyl)-5-(ethyl(tetrahydro-2H-pyran-4-yl)amino)-4-methylthiophen-2-yl)piperidine-1-carboxylate] | 316 nM
CCC(c1scc(C(=O)NCc2c(C)cc(C)[nH]c2=O)c1C)[C@H]1CC[C@H](N)CC1 (stereo partly drawn) [Example 43, 5-(1-((trans)-4-Aminocyclohexyl)propyl)-N-((4,6-dimethyl-2-oxo-1,2-dihydropyridin-3-yl)methyl)-4-methylthiophene-3-carboxamide] | 16 nM
CCC(c1scc(C(=O)NCc2c(C)cc(C)[nH]c2=O)c1C)C1CCNCC1 (centres unmarked) [Example 40, N-((4,6-Dimethyl-2-oxo-1,2-dihydropyridin-3-yl)methyl)-4-methyl-5-(1-(piperidin-4-yl)propyl)thiophene-3-carboxamide] | 20 nM
CCC(c1scc(C(=O)NCc2c(C)cc(C)[nH]c2=O)c1C)[C@H]1CC[C@@H](N(C)C)CC1 (single isomer, unassigned; (+)) [Example 46, (+)-N-((4,6-Dimethyl-2-oxo-1,2-dihydropyridin-3-yl)methyl)-5-(1-((cis)-4-(dimethylamino)cyclohexyl)propyl)-4-methylthiophene-3-carboxamide] | 316 nM
CC[C@H](c1scc(C(=O)NCc2c(C)cc(C)[nH]c2=O)c1C)N1CCC(N(C)C)CC1 [Example 42, (R)-(+)-N-((4,6-dimethyl-2-oxo-1,2-dihydropyridin-3-yl)methyl)-5-(1-(4-(dimethylamino)piperidin-1-yl)propyl)-4-methylthiophene-3-carboxamide] | 316 nM
C/C=C(/c1scc(C(=O)NCc2c(C)cc(C)[nH]c2=O)c1C)[C@H]1CC[C@H](NC(=O)OC(C)(C)C)CC1 [Example 34, tert-Butyl ((trans)-4-((E)-1-(4-(((4,6-dimethyl-2-oxo-1,2-dihydropyridin-3-yl)methyl)carbamoyl)-3-methylthiophen-2-yl)prop-1-en-1-yl)cyclohexyl)carbamate] | 100 nM
CCN(c1scc(C(=O)NCc2c(C)cc(C)[nH]c2=O)c1C)C1CCN(C(C)C)CC1 [Example 66, N-((4,6-dimethyl-2-oxo-1,2-dihydropyridin-3-yl)methyl)-5-(ethyl(1-isopropylpiperidin-4-yl)amino)-4-methylthiophene-3-carboxamide] | 63 nM
Cc1cc(C)c(CNC(=O)c2csc(-c3cccc4c3CCNC4)c2C)c(=O)[nH]1 [Example 70, N-((4,6-Dimethyl-2-oxo-1,2-dihydropyridin-3-yl)methyl)-4-methyl-5-(1,2,3,4-tetrahydroisoquinolin-5-yl)thiophene-3-carboxamide hydrochloride] | 100 nM
Cc1cc(C)c(CNC(=O)c2csc(C(O)[C@H]3CC[C@H](N(C)C)CC3)c2C)c(=O)[nH]1 (stereo partly drawn) [Example 38, N-((4,6-dimethyl-2-oxo-1,2-dihydropyridin-3-yl)methyl)-5-(((trans)-4-(dimethylamino)cyclohexyl)(hydroxy)methyl)-4-methylthiophene-3-carboxamide] | 158 nM
C/C=C(/c1scc(C(=O)NCc2c(C)cc(C)[nH]c2=O)c1C)C1CCNCC1 [Example 33, (E)-N-((4,6-Dimethyl-2-oxo-1,2-dihydropyridin-3-yl)methyl)-4-methyl-5-(1-(piperidin-4-yl)prop-1-en-1-yl)thiophene-3-carboxamide] | ≤ 10 nM

Next, values leading:

IC50 | Compound
32 nM | CCN(c1sc(C)c(C(=O)NCc2c(C)cc(C)[nH]c2=O)c1C)C1CCOCC1 [Example 54, N-((4,6-Dimethyl-2-oxo-1,2-dihydropyridin-3-yl)methyl)-5-(ethyl(tetrahydro-2H-pyran-4-yl)amino)-2,4-dimethylthiophene-3-carboxamide hydrochloride]
79 nM | CCN(c1sc(C#N)c(C(=O)NCc2c(C)cc(C)[nH]c2=O)c1C)C1CCOCC1 [Example 55, 2-Cyano-N-((4,6-dimethyl-2-oxo-1,2-dihydropyridin-3-yl)methyl)-5-(ethyl(tetrahydro-2H-pyran-4-yl)amino)-4-methylthiophene-3-carboxamide hydrochloride]
20 nM | CCN(c1sc(Br)c(C(=O)NCc2c(C)cc(C)[nH]c2=O)c1C)[C@H]1CC[C@H](N(C)C)CC1 [Example 50, 2-Bromo-N-((4,6-dimethyl-2-oxo-1,2-dihydropyridin-3-yl)methyl)-5-(((trans)-4-(dimethylamino)cyclohexyl)(ethyl)amino)-4-methylthiophene-3-carboxamide hydrochloride]
316 nM | CCN(CC)c1sc(Br)c(C(=O)NCc2c(C)cc(C)[nH]c2=O)c1C [Example 52, 2-Bromo-5-(diethylamino)-N-((4,6-dimethyl-2-oxo-1,2-dihydropyridin-3-yl)methyl)-4-methylthiophene-3-carboxamide]
501 nM | CCN(c1sc(C2=CCN(C)CC2)c(C(=O)NCc2c(C)cc(C)[nH]c2=O)c1C)C1CCOCC1 [Example 61, N-((4,6-Dimethyl-2-oxo-1,2-dihydropyridin-3-yl)methyl)-5-(ethyl(tetrahydro-2H-pyran-4-yl)amino)-4-methyl-2-(1-methyl-1,2,3,6-tetrahydropyridin-4-yl)thiophene-3-carboxamide]
794 nM | CCN(c1sc(C2CCNC2)c(C(=O)NCc2c(C)cc(C)[nH]c2=O)c1C)C1CCOCC1 (centres unmarked) [Example 58, N-((4,6-Dimethyl-2-oxo-1,2-dihydropyridin-3-yl)methyl)-5-(ethyl(tetrahydro-2H-pyran-4-yl)amino)-4-methyl-2-(pyrrolidin-3-yl)thiophene-3-carboxamide hydrochloride]
25 nM | CCN(c1sc(-c2ccoc2)c(C(=O)NCc2c(C)cc(C)[nH]c2=O)c1C)C1CCOCC1 [Example 75, N-((4,6-dimethyl-2-oxo-1,2-dihydropyridin-3-yl)methyl)-5-(ethyl(tetrahydro-2H-pyran-4-yl)amino)-2-(furan-3-yl)-4-methylthiophene-3-carboxamide]
32 nM | CCN(c1sc(-c2ccoc2)c(C(=O)NCc2c(C)cc(C)[nH]c2=O)c1C)[C@H]1CC[C@H](N(C)C)CC1 [Example 77, N-((4,6-dimethyl-2-oxo-1,2-dihydropyridin-3-yl)methyl)-5-(((trans)-4-(dimethylamino)cyclohexyl)(ethyl)amino)-2-(furan-3-yl)-4-methylthiophene-3-carboxamide]
